# Test results: patent publication US20200087516A1, “RED FLUORESCENT PROBE FOR USE IN DETECTION OF PEPTIDASE ACTIVITY” (The University of Tokyo, priority 2017, published 2020)
# Assays:
# [1] = pKcycl measured values of existing rhodamine derivatives (model structures); format: physicochemical; conditions: Table 1, model structures
# Excerpt: A formula that calculates pKcycl from the free energy difference of the closed-ring form/ring-opened form by the analyzed cationic reaction was derived, assuming that acid-base equilibrium (lateral direction in the model) is reached quickly enough in the HM groups and amino groups. When the calculation results of close-1, open-1 were used as this free energy difference, it was understood that pKcycl of existing derivatives is accurately reproduced.
# [2] = Absorption/fluorescence spectrum measurement of the fluorescent probes (pKcycl from absorption spectra); format: physicochemical; conditions: computed from absorption spectra (FIG. 2, FIG. 4)
# Excerpt: The absorption spectra and fluorescence spectra of fluorescent probe 1 (gGlu-MHM4ThPCR550) and fluorescent probe 2 (gGlu-HM3ThPSiR600) synthesized in Example 1 were each measured.
# FIGS. 2 and 3 respectively show the absorption spectra and fluorescence spectra of fluorescent probe 1 (gGlu-MHM4ThPCR550) and, as a comparison, MHM4ThPCR550 having no gGlu group. The pKcycl values computed from the results in FIG. 2 are shown below in Table 3.
# The absorption spectra of HM3ThPSiR600 and HM3ThPAcSiR600 having no gGlu group are also shown as a comparison.
# [3] = tested on: γ-Glutamyl transpeptidase (GGT); test: Enzyme assay of fluorescent probes: fluorescence intensity change on GGT addition; format: biochemical; conditions: 1 μM probe, 10 mM NaPi buffer pH 7.4, 37° C., 1.1 U GGT; 585 nm (probe 1), 613 nm (probe 2)
# Experimental: γ-Glutamyl transpeptidase (GGT) was added to fluorescent probes 1 and 2 of the present invention, and the changes in fluorescence intensity were measured.
# Fluorescent probe 1 or 2 was dissolved to make 1 μM in 2.5 mL of 10 mM NaPi buffer (pH 7.4) containing 0.03% DMSO. The solution, kept at 37° C., was stirred using a magnetic stirrer, and the fluorescence intensity was measured. 1.1 U of GGT was added two minutes after the start of measurement in experiments other than the negative control. The fluorescence intensity of fluorescent probe 1 at 585 nm was measured for a total of 6000 seconds and the fluorescence intensity of probe 2 at 613 nm was measured for a total of 2400 seconds, and plotted as a function of time elapsed. The excitation wavelength was 550 nm for fluorescent probe 1 and 593 nm for fluorescent probe 2; the slit width was 2.4 nm, 5.0 nm for both excitation and fluorescence, and the photomultiplier tube voltage was 700 V.
# As a result, the fluorescence intensity was confirmed to increase due to addition of GGT in the case of both fluorescent probes 1 and 2. The quantum yield of fluorescent probe 1 was 0.58 at pH 3.0. The quantum yield of fluorescent probe 2 was 0.26 at pH 3.0.
# [4] = Fluorescence quantum yield; format: physicochemical; conditions: pH 3.0
# [5] = tested on: SHIN3 cells disseminated intraperitoneally; test: In vivo imaging using cancer peritoneal dissemination model mice; conditions: 100 μM, 300 μL intraperitoneally, five minutes after administration
# Experimental: A quantity of 300 μL of 100 μM fluorescent probes 1 and 2 was injected intraperitoneally into model mice that had been injected intraperitoneally with SHIN3. After five minutes, the mice were placed under isoflurane anesthesia and laparotomized, and imaging was conducted by a Maestro imager.
# Fluorescence spectrum imaging was conducted using a mouse model in which SHIN3 cells had been disseminated intraperitoneally. SHIN3-disseminated model mice were established by intraperitoneally injecting 3×10^6 SHIN3 cells suspended in 300 μL of PBS(−) into seven-week-old female nude mice. The experiment was conducted 29-30 days after injection. The probe solution (100 μM, 300 μL) dissolved in PBS(−) was injected intraperitoneally and allowed to stand for five minutes. The mice were then anesthetized by inhalation of isoflurane, and the skin of the abdomen was cut open. The intestine was removed from the incision, placed on a black rubber plate, and the mesentery was spread. It was applied dropwise to the spread mesentery. Fluorescence imaging was conducted using a Maestro™ Ex In-Vivo Imaging System (CRi Inc.). […] An image with the wavelength of fluorescence derived from the probe cut out or an image spectrally unmixed with autofluorescence is shown. […]
SMILES,pKcycl (Measured) [1],pKcycl (Measured) [2],change in fluorescence intensity due to addition of GGT [3],quantum yield [4],fluorescence imaging of tumors on the mesentery [5]
N=c1ccc2c(-c3ccccc3CO)c3ccc(N)cc3oc-2c1 [HMRG],8.1,–,–,–,–
CC1OC2(c3ccc(N)cc3C(C)(C)c3cc(NC(=O)CC[C@H](N)C(=O)O)ccc32)c2ccsc21 (stereo partly drawn) [fluorescent probe 1],–,6.3,increase,0.58,small tumors having adequate contrast from the background could be observed
C[Si]1(C)c2cc(N)ccc2C2(OCc3sccc32)c2ccc(NC(=O)CC[C@H](N)C(=O)O)cc21 (stereo partly drawn) [fluorescent probe 2],–,5.4,increase,0.26,small tumors having adequate contrast from the background could be observed
